In patent US9125904B1, “Biphenyl imidazoles and related compounds useful for treating HCV infections” (ACHILLION PHARMACEUTICALS, INC., priority 2010, dated 2015) one finds EC50 data, which are given here for 23 molecules.

Read-outs that look alike come from different tables or passages of the source.

The assay deals with HCV replicon. The assay can be described thus: HCV replicon replication assay (NPT ELISA). Conditions: Hepatitis C virus. It counts as cell-based. Here is the method:
Compounds claimed herein are tested for the ability to inhibit viral replication of the Hepatitis C replicon in cultured cells in which the HCV replicon construct has been incorporated. The HCV replicon system was described by Bartenschlager, et. al (Science, 285, pp. 110-113 (1999)). The replicon system is predictive of in vivo anti-HCV activity; compounds that are active in humans uniformly evidence activity in the replicon assay.
In this assay HCV replicon containing cells are treated with different concentrations of the test compound to ascertain the ability of the test compound to suppress replication of the HCV replicon. As a positive control, HCV replicon-containing cells are treated with different concentrations of interferon alpha, a known inhibitor of HCV replication. The replicon assay system includes Neomycin Phosphotransferase (NPT) as a component of the replicon itself in order to detect the transcription of replicon gene products in the host cell. Cells in which the HCV replicon is actively replicating have high levels of NPT; the level of NPT is proportional to HCV replication. […] The NPT level of each sample is measured using a captured ELISA.
A protocol for testing compounds for the ability to inhibit viral replication of the Hepatitis C replicon cultured cells in which the replicon construct has been incorporated, follows.
The HCV replicon contains, 5′-3′, the HCV-IRES, the neomycin phosphotransferase (neo) gene, the IRES of encephalomyocarditis virus, which directs translation of HCV sequences NS3 to NS5B, and the 3′-NTR. The sequence of the HCV replicon has been deposited in GenBank (Accession no. AJ242652).
The replicon is transfected into Huh-7 cells using standard methods such as electroporation.
The equipment and materials include, but are not limited to, Huh-7 HCV replicon-containing cells, maintenance media (DMEM (Dulbecco's modified Eagle media) supplemented with 10% FBS, L-glutamine, non-essential amino acids, penicillin (100 units/ml), streptomycin (100 micrograms/ml), and 500 micrograms/ml of Geneticin (G418), screening media (DMEM supplemented with 10% FBS, L-glutamine, non-essential amino acids, penicillin (100 units/ml) and streptomycin (100 micrograms/ml)), 96 well tissue culture plates (flat bottom), 96 well plates (U bottom for drug dilution), Interferon alpha for positive control, fixation reagent (such as methanol: acetone), primary antibody (rabbit anti-NPTII), secondary antibody: Eu-N1 1, and enhancement solution.
HCV replicon-containing cells support high levels of viral RNA replicon replication when their density is suitable. Over-confluency causes decreased viral RNA replication. Therefore, cells must be kept growing in log phase in the presence of 500 micrograms/ml of G418. Generally, cells should be passed twice a week at 1: 4-6 dilution. Cell maintenance is conducted as follows:
HCV replicon-containing cells are examined under a microscope to ensure that cells growing well. Cells are rinsed once with PBS and 2 ml trypsin is added. The cell/trypsin mixture is incubated at 37° C. in a CO2 incubator for 3-5 minutes. After incubation 10 ml of complete media is added to stop the trypsinization reaction. Cells are blown gently, put into a 15 ml tube, and spun at 1200 rpm for 4 minutes. The trypsin/medium solution is removed. Medium (5 ml) is added and the cells are mixed carefully. The cells are counted.
The cells are then seeded onto 96-well plates at a density of 6000-7500 cells/100 microliters/well (6−7.5×10^5 cells/10 ml/plate). The plates are then incubated at 37° C. in a 5% CO2 incubator.
Cells are examined under a microscope approximated 24 hours after seeding and prior to adding drugs. If counting and dilution were performed correctly, cells are 60-70% confluent and nearly all cells should attach and spread evenly in the well.
HCV replicon-containing cells are rinsed with once PBS once; 2 mls of trypsin are then added. Cells are incubated at 37° C. in a 5% CO2 incubator for 3-5 minutes. […]

Where [1] appears, read: 72 h, Huh-7 HCV replicon-containing cells, three days, class symbols, read-out: EC50.
Setting [2] is: 72 h, Huh-7 HCV replicon-containing cells, three days, numeric cells, read-out: EC50.

In the case of `COC(=O)N[C@H](C(=O)N1C2CC(CN(C)C2)C1c1nc(-c2ccc(-c3ccc(-c4cnc([C@@H]5CCCN5C(=O)[C@@H](NC(=O)OC)C(C)C)[nH]4)cc3)cc2)c[nH]1)C(C)C` (stereo partly shown) [Compound 52], the EC50 under setting [1] is < 50 nM.

Consider `COC(=O)N[C@H](C(=O)N1C2CCC(C2)C1c1ncc(-c2ccc(-c3ccc(-c4cnc([C@@H]5CCCN5C(=O)[C@@H](NC(=O)OC)C(C)C)[nH]4)cc3)cc2)[nH]1)C(C)C` (stereo partly shown) [Compound 57], for which the EC50 under setting [1] is < 5 nM.

As for `COC(=O)N[C@H](C(=O)N1CCC[C@H]1c1ncc(-c2cc3cc(-c4ccc(-c5cnc([C@@H]6C7CCC(C7)N6C(=O)[C@@H](NC(=O)OC)C(C)C)[nH]5)cc4)ccc3o2)[nH]1)C(C)C` (stereo partly shown) [Compound 71], under setting [1], the EC50 is < 5 nM.

For the molecule `CC(C)(C)OC(=O)N1CC=CC1c1nc(-c2ccc(-c3ccc(-c4c[nH]c([C@@H]5C=CCN5C(=O)OC(C)(C)C)n4)cc3)cc2)c[nH]1` (stereo partly drawn) [Compound 20, (2R,2′R)-tert-butyl 2,2′-(4,4′-(biphenyl-4,4′-diyl)bis(1H-imidazole-4,2-diyl))bis(2,5-dihydro-1H-pyrrole-1-carboxylate)], the concentration for a half-maximal effect (EC50) under setting [1] is < 100 nM.

Turning to `COC(=O)N[C@H](C(=O)N1CCC[C@H]1c1cnc(-c2ccc(-c3ccc(NC(=O)[C@H]4CCCCN4C(=O)[C@H](NC(=O)OC(C)(C)C)c4ccccc4)cc3)cc2)[nH]1)C(C)C` [Compound 39], the concentration for a half-maximal effect (EC50) is, setting by setting: under setting [2], > 1 nM; (Huh-7) ≤ 10000 nM.

As to `COC(=O)N[C@H](C(=O)N1CCCC[C@H]1c1nc(-c2ccc(-c3ccc(-c4c[nH]c([C@@H]5CCCN5C(=O)[C@@H](NC(=O)OC)C(C)C)n4)cc3)cc2)c[nH]1)C(C)C` [Compound 48], under setting [1], the EC50 is < 5 nM.

Turning to `CC(=O)N[C@H](C(=O)N1CC=CC1c1nc(-c2ccc(-c3ccc(-c4c[nH]c(C5C=CCN5C(=O)[C@@H](NC(C)=O)C(C)C)n4)cc3)cc2)c[nH]1)C(C)C` (stereo partly drawn) [Compound 28, N,N′-(2S,2′S)-1,1′-((2R,2′R)-2,2′-(4,4′-(biphenyl-4,4′-diyl)bis(1H-imidazole-4,2-diyl))bis(1H-pyrrole-2,1(2H,5H)-diyl))bis(3-methyl-1-oxobutane-2,1-diyl)diacetamide], under setting [1], the half-maximal effective concentration (EC50) was < 50 nM.

For `COC(=O)N[C@H](C(=O)N1C2CCC(C2)[C@H]1c1nc(-c2ccc(/C=C/c3ccc(-c4cnc([C@@H]5C6CCC(C6)N5C(=O)[C@@H](NC(=O)OC)C(C)C)[nH]4)cc3)cc2)c[nH]1)C(C)C` (stereo partly shown) [Compound 72], the EC50 under setting [1] is < 5 nM.

Regarding `COC(=O)N[C@H](C(=O)N1C2CCC(C2)[C@H]1c1nc(-c2ccc(-c3c[nH]c([C@@H]4C5CCC(C5)N4C(=O)[C@@H](NC(=O)OC)C(C)C)n3)cc2)c[nH]1)C(C)C` [Compound 74], the EC50 under setting [1] is < 50 nM.

In the case of `COC(=O)NC(C(=O)N1C2CCC(CC2)C1c1ncc(-c2ccc(-c3ccc(-c4c[nH]c([C@@H]5C6CCC(CC6)N5C(=O)C(NC(=O)OC)C(C)C)n4)cc3)cc2)[nH]1)C(C)C` (stereo partly shown) [Compound 51], the EC50 under setting [1] is < 5 nM.

With `COC(=O)N[C@H]1CC[C@H]2CC[C@@H](c3ncc(-c4ccc(-c5ccc(-c6cnc([C@@H]7CCCN7C(=O)[C@@H](NC(=O)OC)C(C)C)[nH]6)cc5)cc4)[nH]3)N2C1=O` [Compound 55], the EC50 under setting [1] is < 50 nM.

In the case of `COC(=O)N[C@H](C(=O)N1CCC[C@H]1c1ncc(-c2ccc(-c3ccc(-c4c[nH]c([C@@H]5C6CCC(C6)N5C(=O)[C@@H](NC(=O)OC)C(C)C)n4)cc3)cc2)[nH]1)C(C)C` (stereo partly shown) [Compound 36], the EC50 under setting [1] is < 50 nM.

As to `COC(=O)N[C@H](C(=O)N1CCC[C@H]1c1ncc(-c2ccc(-c3ccc(-c4c[nH]c([C@@H]5C6CC([C@@H](O)[C@H]6O)N5C(=O)[C@@H](NC(=O)OC)C(C)C)n4)cc3)cc2)[nH]1)C(C)C` (stereo partly shown) [Compound 46], the EC50 under setting [1] is < 50 nM.

`COC(=O)N[C@H](C(=O)N1CCCCC1c1nc(-c2ccc(-c3ccc(-c4c[nH]c(C5C6CCC(C6)N5C(=O)[C@@H](NC(=O)OC)C(C)C)n4)cc3)cc2)c[nH]1)C(C)C` (stereo partly shown) [Compound 49]: the EC50 under setting [1] is < 5 nM.

As for `CNC(=O)C[C@H](C(=O)N1CCC[C@H]1c1ncc(-c2ccc(-c3cnc([C@@H]4CCCN4C(=O)[C@@H](CC(=O)NC)C(C)(C)C)[nH]3)cc2)[nH]1)C(C)(C)C` [Compound 23, (3S,3′S)-3,3′-(2S,2′S)-2,2′-(5,5′-(1,4-phenylene)bis(1H-imidazole-5,2-diyl))bis(pyrrolidine-2,1-diyl)bis(oxomethylene)bis(N,4,4-trimethylpentanamide)], the EC50 under setting [1] was < 50 nM.

Consider `COC(=O)NC(C(=O)N1CCC[C@H]1Cc1nc(-c2ccc(-c3ccc(-c4cnc([C@@H]5CCCN5C(=O)[C@@H](NC(=O)OC)C(C)C)[nH]4)cc3)cc2)c[nH]1)C(C)C` (stereo partly shown) [Compound 42], for which, under setting [1], the EC50 was < 5 nM.

Consider `COC(=O)N[C@H](C(=O)N1CCC[C@H]1c1ncc(-c2ccc(-c3ccc4oc(-c5cnc([C@@H]6C7CCC(C7)N6C(=O)[C@@H](NC(=O)OC)C(C)C)[nH]5)cc4c3)cc2)[nH]1)C(C)C` (stereo partly shown) [Compound 70], for which the half-maximal effective concentration (EC50) under setting [1] was < 5 nM.

As to `COC(=O)NC(C(=O)N1C2CCC(C2)C1c1nc(-c2ccc(-c3ccc(-c4c[nH]c(C5C=CCN5C(=O)[C@@H](NC(=O)OC)C(C)C)n4)cc3)cc2)c[nH]1)C(C)C` (stereo partly shown) [Compound 62], the EC50 under setting [1] was < 5 nM.

As for `CCS(=O)(=O)N[C@H](C(=O)N1C2CCC(C2)[C@H]1c1nc(-c2ccc(-c3ccc(-c4c[nH]c([C@@H]5C6CCC(C6)N5C(=O)[C@@H](NS(=O)(=O)CC)C(C)C)n4)cc3)cc2)c[nH]1)C(C)C` [Compound 33, N,N′-(2S,2′S)-1,1′-((3S,3′S)-3,3′-(4,4′-(biphenyl-4,4′-diyl)bis(1H-imidazole-4,2-diyl))bis(2-azabicyclo[2.2.1]heptane-3,2-diyl))bis(3-methyl-1-oxobutane-2,1-diyl)diethanesulfonamide], the EC50 by setting is: under setting [1], < 5 nM; (Huh-7) ≤ 10000 nM.

Consider `CNC(=O)C[C@H](C(=O)N1CCC[C@H]1c1ncc(-c2ccc3c(c2)Cc2cc(-c4cnc([C@@H]5CCCN5C(=O)[C@@H](CC(=O)NC)C(C)(C)C)[nH]4)ccc2-3)[nH]1)C(C)(C)C` [Compound 37, (3S,3′S)-3,3′-(2S,2′S)-2,2′-(5,5′-(9H-fluorene-2,7-diyl)bis(1H-imidazole-5,2-diyl))bis(pyrrolidine-2,1-diyl)bis(oxomethylene)bis(N,4,4-trimethylpentanamide)], for which the EC50 (Huh-7, 72 h) is > 1 nM.

In the case of `COC(=O)N[C@H](C(=O)N1CCCCCC1c1nc(-c2ccc(-c3ccc(-c4c[nH]c(C5CCCCCN5C(=O)[C@@H](NC(=O)OC)C(C)C)n4)cc3)cc2)c[nH]1)C(C)C` (stereo partly drawn) [Compound 61, dimethyl (2S,2′S)-1,1′-(2,2′-(4,4′-(biphenyl-4,4′-diyl)bis(1H-imidazole-4,2-diyl))bis(azepane-2,1-diyl))bis(3-methyl-1-oxobutane-2,1-diyl)dicarbamate], the EC50 under setting [1] is < 50 nM.

As to `COC(=O)N[C@H](C(=O)N1C2CCC(C2)[C@H]1c1ncc(-c2ccc(Br)cc2)[nH]1)C(C)C` (stereo partly drawn) [Compound 54, methyl (2S)-1-((3S)-3-(5-(4-bromophenyl)-1H-imidazol-2-yl)-2-azabicyclo[2.2.1]heptan-2-yl)-3-methyl-1-oxobutan-2-ylcarbamate], under setting [2], the EC50 was < 100 nM.

As for `CC(C)(C)OC(=O)N1c2ccccc2C[C@H]1c1nc(-c2ccc(-c3ccc(-c4cnc([C@@H]5Cc6ccccc6N5C(=O)OC(C)(C)C)[nH]4)cc3)cc2)c[nH]1` [Compound 27, (2S,2′S)-tert-butyl 2,2′-(5,5′-(biphenyl-4,4′-diyl)bis(1H-imidazole-5,2-diyl))diindoline-1-carboxylate], the EC50 under setting [1] was < 50 nM.
